We go through eleven compounds from publication PMC10726475, “Atypical N-Alkyl to N-Noralkoxy Switch in a Dual cSRC/BCR-ABL1 Kinase Inhibitor Improves Drug Efflux and hERG Affinity” (ACS Medicinal Chemistry Letters, 2023).

A short description of series [1]: Solubility in aqueous buffer at pH 7.4. In kind it is physicochemical. The following applies: aqueous buffer at pH 7.4, n = 1; read-out: aq sol.
Series [2] is described as follows: logD7.4 by shake-flask method. The following applies: pH 7.4. The series is classed as physicochemical.
Series [3] is described as follows: pKa determination by pH-metric method. In kind it is physicochemical. How it is done: Figure 3 Matched molecular pair (MMP) analysis on the 2-methoxyphenoxy-propyl-N-methylpiperazine scaffold and pKa values of related δ-alkoxy substituted amines. (A) MMP analysis of a bosutinib fragment. All measurements were assayed by Pharmaron Inc., and values presented represent the mean of n = 2 technical replicates, unless otherwise specified. logD7.4 was determined by the shake-flask method. […] (B) Reported[54] pKa values of related dimethylamines highlighting similarities in pKa values of δ-alkoxy substitution patterns. TEXT PRINTED IN THE PICTURE: (A) 17: logD7.4: 0.9; Aq. Sol. (μM): 277; pKa1: 4.2; pKa2: 8.1 | (A) 18: logD7.4: 1.0; Aq. Sol. […]
Inc. using methods previously derscribed.1 […]
Shedlovsky extrapolation for the pH-metric pKa method. […]

Series [4] concerns Salmonella strain TA98.
Series [5] deals with Salmonella strain TA1535.
Series [6] relates to Salmonella strain TA1537.
The test system of series [7] is Salmonella strain TA100.
The conditions of series [8]: cited from earlier work; for ΔpKa: relative to simple tertiary amine 19, δ-position substituent.
The nature of series [9]: Plasma protein binding by equilibrium dialysis, human. The series is classed as in vitro ADME. Background: Equilibrium dialysis compares concentrations on both sides of a semipermeable membrane.
From the text: (§1) Human plasma (mixed gender) Ltd-People’s Hospital of Shandong Weifang Hi-
(§2) Tech Industrial Development Zone (Batch No. P-
(§3) Rat plasma (SD/mixed gender) BiolVT (Batch No. RAT501985)
(§4) Mouse plasma (CD-1/mixed gender) IPHASE or BiolVT (Batch No. MSE427337)
The nature of series [10]: Plasma protein binding by equilibrium dialysis, rat. In kind it is in vitro ADME.
From the text: as §1, §2, §3, §4
A short description of series [11]: Plasma protein binding by equilibrium dialysis, mouse. The series is classed as in vitro ADME.
From the text: as §1, §2, §3, §4
The subject of series [12] is MDCKII-MDR1 cells. The series can be described thus: MDCKII-MDR1 cell permeability.
From the text: (§5) Abbreviations: Papp, apparent permeability; AP, apical; BL, basolateral.
In series [13] the test system is P-gp (MDR1). The series can be described thus: in vitro. The conditions noted are these: dog, MDCK-MDR1.
From the text: as §5
The nature of series [14]: in vitro. The following applies: human, Caco-2.
Series [15] has as its system Caco-2 cells. The series can be described thus: Caco-2 cell permeability. Background: Caco-2 monolayers are a common model of the intestinal barrier.
Where [16] appears, read: pH-metric method, range -12, read-out: pKa1.

Molecules are shown by their SMILES. Where “and” joins values, the source holds several entries; their conditions need not be identical. Identical values can stand only once. Like-named read-outs stand apart in the source and are kept apart here.

Usually logD stands for lipophilicity at a set pH, counting ionised and neutral species. A lower logD goes with a more hydrophilic compound. Consider `COc1ccccc1OCCCN1CCN(C)CC1` [compound 17], for which the solubility in series [1] is > 250 µM and 277 µM. This compound also returned a logD at 2 h in series [2] of 0.9. The pKa came out at 8.1 in series [3] (pH 2, pH-metric method, range pH 2-12, read-out: pKa2) and 4.2 in series [3] (setting [16]).

With `O=[N+]([O-])c1ccc2c(c1)Cc1ccccc1-2` [2-Nitrofluorene], the “Count (# of wells)” value in series [4] (TA98+S9, 3.0E-05 M) is listed as 28; in series [4] (TA98-S9, 3.0E-05 M) it was 30; in [5] (TA1535+S9, 3.0E-05 M), 0; in [5] (TA1535-S9, 3.0E-05 M), 0; in [6] (TA1537+S9, 3.0E-05 M), 2; in series [6] (TA1537-S9, 3.0E-05 M) it was 6. Besides, the “Count (# of wells)” value in series [7] (TA100+S9, 3.0E-05 M) is 0; in [7] (TA100-S9, 3.0E-05 M), 2. Further, the “Positive Significance (- to +++)” value in series [5] (TA1535+S9, 3.0E-05 M) was “-”; in series [5] (TA1535-S9, 3.0E-05 M), “-”; in series [6] (TA1537+S9, 3.0E-05 M) it was “-”; in series [6] (TA1537-S9, 3.0E-05 M), “+ (weak positive, if P < 0.05)”; in series [7] (TA100+S9, 3.0E-05 M) it was “-”; in series [7] (TA100-S9, 3.0E-05 M) it was “-”.

For `Nc1c2ccccc2nc2ccccc12` [9-Aminoacridine], the “Count (# of wells)” value in series [4] (TA98+S9, 1.0E-05 M) is 1; in series [4] (TA98-S9, 1.0E-05 M), 2; in series [5] (TA1535+S9, 1.0E-05 M), 1; in series [5] (TA1535-S9, 1.0E-05 M) it was 0; in series [6] (TA1537+S9, 1.0E-05 M), 31; in [6] (TA1537-S9, 1.0E-05 M) it was 25. The “Count (# of wells)” value is reported as 2 in [7] (TA100+S9, 1.0E-05 M) and 0 in [7] (TA100-S9, 1.0E-05 M). For the same compound, the “Positive Significance (- to +++)” value is on record as “-” in [4] (TA98+S9, 1.0E-05 M); “-” in [4] (TA98-S9, 1.0E-05 M); “-” in series [5] (TA1535+S9, 1.0E-05 M); “-” in series [5] (TA1535-S9, 1.0E-05 M); “-” in series [7] (TA100+S9, 1.0E-05 M); “-” in series [7] (TA100-S9, 1.0E-05 M).

Regarding `CN(N=O)C(=O)N[C@H]1C(O)O[C@H](CO)[C@@H](O)[C@@H]1O` (mixture of isomers) [Streptozotocin], the “Count (# of wells)” value in [4] (TA98+S9, 2.5E-06 M) amounted to 6; in [4] (TA98-S9, 2.5E-06 M), 1; in [5] (TA1535+S9, 2.5E-06 M) it was 48; in series [5] (TA1535-S9, 2.5E-06 M), 46; in series [6] (TA1537+S9, 2.5E-06 M) it was 0; in series [6] (TA1537-S9, 2.5E-06 M), 1. Besides, the “Count (# of wells)” value in [7] (TA100+S9, 2.5E-06 M) was 19; in series [7] (TA100-S9, 2.5E-06 M), 39. Moreover, the “Positive Significance (- to +++)” value in [4] (TA98+S9, 2.5E-06 M) is recorded as “+ (weak positive, if P < 0.05)”; in series [4] (TA98-S9, 2.5E-06 M) it was “-”; in series [6] (TA1537+S9, 2.5E-06 M), “-”; in series [6] (TA1537-S9, 2.5E-06 M) it was “-”.

For `CN(C)CCCO` [compound 21], the ΔpKa in series [8] was −0.9.

Take `COCCCN(C)C` [compound 20]: the ΔpKa in series [8] is on record as −0.8.

For `CC(=O)N1CCN(c2ccc(OCC3COC(Cn4ccnc4)(c4ccc(Cl)cc4Cl)O3)cc2)CC1` (centres unmarked) [Ketoconazole], the “fu, plasma % / %Unbound” value in series [9] (5 μM, equilibrium dialysis) is 0.82%; in [10] (5 μM, equilibrium dialysis), 0.67%. Moreover, the recovery in [9] (both sexes) came out at 98.6%; in series [10] (both sexes, SD) it was 103%; in series [11] (both sexes, CD-1) it was 96.8%. The share remaining at 6 h, 5 μM in series [9] (both sexes) amounted to 102%; in series [11] (both sexes, CD-1), 96.3%. Further, the fraction unbound at 5 μM in series [9] (both sexes, read-out: %Bound (converted)) was 0.0082; in series [10] (both sexes, SD, read-out: fu, plasma % / %Unbound (converted)), 0.0067; in series [11] (both sexes, CD-1, 5 μM, equilibrium dialysis, read-out: fu, plasma % / %Unbound), 0.0058. Moreover, in [11], the “%Bound” value worked out at 99.42%.

For the compound `COc1ccccc1OCCON1CCN(C)CC1` [compound 18], the solubility in [1] was > 250 µM and 287 µM. The compound also registered a logD at 2 h in series [2] of 1. In series [3] (setting [16]), the pKa stood at 7.4. For the same compound, the ΔpKa in series [3] (terminal N-methylamine of 18 relative to 17) was −0.7.

On to `NO` [hydroxylamine], for which the pKa in series [8] (simple hydroxylamine) is given as 5.9.

Usually Papp A→B stands for the apparent permeability from the apical to the basolateral side of a cell layer. A high value points to ready permeation. By Papp B→A is commonly meant how fast a substance crosses the layer from the basolateral side. One may read the efflux ratio as the permeability from basolateral to apical divided by that in the opposite direction, in the common usage. On to `C[C@H]1O[C@@H](O[C@H]2[C@@H](O)C[C@H](O[C@H]3[C@@H](O)C[C@H](O[C@H]4CC[C@@]5(C)[C@H](CC[C@@H]6[C@@H]5C[C@@H](O)[C@]5(C)[C@@H](C7=CC(=O)OC7)CC[C@]65O)C4)O[C@@H]3C)O[C@@H]2C)C[C@H](O)[C@@H]1O` [Digoxin], for which the “Recovery% (BL-AP)” value in series [12] was found to be 92.45%. In series [13], the Papp A→B at 2 h, 1 μM was 0.26 ×10⁻⁶ cm/s; the Papp B→A at 2 h, 1 μM stood at 10.2 ×10⁻⁶ cm/s; the efflux ratio at 2 h, 1 μM was determined as 38.6; the recovery amounted to 96.3%. For the same compound, in series [14], the Papp A→B at 2 h, 5 μM turned out to be 0.34 ×10⁻⁶ cm/s; the Papp B→A at 2 h, 5 μM stood at 15.6 ×10⁻⁶ cm/s; the efflux ratio at 2 h, 5 μM is 45.6; the recovery stood at 103%. Also, in series [15], the “Recovery% (BL-AP)” value was found to be 101.40%.

Regarding `Nc1ccc2cc3ccccc3cc2c1` [2-Aminoanthracene], the “Count (# of wells)” value was determined as 48 in series [4] (TA98+S9, 2.0E-06 M); 1 in series [4] (TA98-S9, 1.0E-06 M); 12 in series [5] (TA1535+S9, 1.0E-06 M); 0 in series [5] (TA1535-S9, 1.0E-06 M); 11 in series [6] (TA1537+S9, 2.0E-06 M); 0 in [6] (TA1537-S9, 1.0E-06 M). The “Count (# of wells)” value in series [7] (TA100+S9, 1.0E-06 M) is reported as 17; in series [7] (TA100-S9, 1.0E-06 M) it was 2. Moreover, the “Positive Significance (- to +++)” value in series [4] (TA98-S9, 1.0E-06 M) is given as “-”; in series [5] (TA1535-S9, 1.0E-06 M), “-”; in series [6] (TA1537+S9, 2.0E-06 M) it was “++ (strong positive, if P < 0.01)”; in series [6] (TA1537-S9, 1.0E-06 M) it was “-”; in series [7] (TA100+S9, 1.0E-06 M), “++ (strong positive, if P < 0.01)”; in series [7] (TA100-S9, 1.0E-06 M), “-”.
